In patent publication US10722582B2, “Targeted antimicrobial photodynamic therapy” (Purdue Research Foundation, priority 2018, dated 2020):
Marks after values point to notes of the source that are not given here.

Columns and labels:
[1] = tested on: MRSA (USA700), clinical isolate NRS 386; assay: aPDI with CFL irradiation (406 nm), planktonic bacteria, drop-plate colony count; assay type: cell-based, Staphylococcus aureus; conditions: for potency relative to dark toxicity (0 min exposure): 15 min CFL, 3-log reduction
Experimental: (§1) In all cases, we observed potent aPDI with bactericidal activities at 1-5 μM (Table 1). The consistent response to Ga-PpIX treatment is encouraging, as variable efficacy between strains is a known problem in antimicrobial photodynamic therapy (Nakonieczna, J. et al., Photodiagn. Photodyn. Ther. 2012, 9, 359-361). […] We note that PpIX is already approved as a photosensitizer for topical treatment of several skin diseases, but its utility is limited by poor photostability.
(§2) All bacterial strains were cultured at 37° C. in an aerobic atmosphere unless otherwise noted. […] Bacterial counts were estimated in units of cfu/mL by plating serial dilutions onto agar plates, followed by incubation for 16 hours at 37° C. Iron-challenged conditions were typically achieved by first growing the bacteria in standard (iron-replete) media (see Table 2), then harvesting and resuspending in media containing 3 mM 2,2′-bipyridine. Further details and variations on iron-deficient culture conditions are provided in Supporting Information.
(§3) A 20-W compact fluorescent lightbulb (CFL; Sunlite SL20/BLB) housed in an ellipsoidal reflector dome was used for aPDI, at an emission wavelength at 406 nm and a mean power density of 12.4 mW/cm^2 (after applying a 408-nm shortpass filter). Antimicrobial assays were performed on planktonic bacteria at 10^7 cfu/mL with variable exposure times to CFL irradiation, followed by plating on agar and incubation at 37° C. In a typical experiment, bacterial suspensions were transferred into 96-well plates then treated with 100-μL aliquots of Ga-PpIX or PpIX solution, with final concentrations ranging from 320 to 0.31 μg/mL, followed immediately with CFL irradiation for 5 to 15 minutes. The irradiated bacteria were plated onto agar in serial tenfold dilutions (10^7-10^1 cfu/mL); controls included one set of wells without photosensitizer, and one set of wells with photosensitizer but without 15 min irradiation, prior to plating (dark toxicity). Bacterial counts were determined by the drop-plate method using TS-agar plates, and reported in colony-forming units per milliliter (cfu/mL).
(§4) The irradiation source consisted of a 20-W compact fluorescent lightbulb (CFL; Sunlite SL20/BLB) housed in an ellipsoidal reflector dome. Emission spectra were measured with an Acton SpectraPro 2300i spectrometer (1200 gratings/inch), with major peaks at 406 and 438 nm and a minor peak at 548 nm (FIG. 10). Irradiance was measured with a handheld luminometer (Lux/FC HS1010A) positioned 4 cm from the CFL, yielding 91 lux or an average power density of 36.4 mW/cm^2; addition of a 425-nm or 408-nm shortpass filter yielded 31 lux or 12.4 mW/cm^2 corresponding with emission at 406 nm. The CFL produced only minor increases in temperature within the dome (28° C. after 15 min).

[2] = tested on: MRSA (USA500), clinical isolate NRS 385; assay: as above; assay type: cell-based, Staphylococcus aureus; conditions: for potency relative to dark toxicity (0 min exposure): 15 min CFL, 3-log reduction
Experimental: as §1, §2, §3, §4

[3] = tested on: MRSA (USA800), clinical isolate NRS 387; assay: as above; assay type: cell-based, Staphylococcus aureus; conditions: for potency relative to dark toxicity (0 min exposure): 15 min CFL, 3-log reduction
Experimental: as §1, §2, §3, §4

[4] = tested on: MRSA (USA200), clinical isolate NRS 383; assay: as above; assay type: cell-based, Staphylococcus aureus; conditions: for potency relative to dark toxicity (0 min exposure): 15 min CFL, 3-log reduction
Experimental: as §1, §2, §3, §4

S. epidermis (ATCC 155) = assay: as above; assay type: cell-based, Staphylococcus epidermidis; conditions: for potency relative to dark toxicity (0 min exposure): 15 min CFL, 3-log reduction
Experimental: All bacterial strains were cultured at 37° C. in an aerobic atmosphere unless otherwise noted. […] Bacterial counts were estimated in units of cfu/mL by plating serial dilutions onto agar plates, followed by incubation for 16 hours at 37° C. […] Further details and variations on iron-deficient culture conditions are provided in Supporting Information.
Antimicrobial assays were performed on planktonic bacteria at 10^7 cfu/mL with variable exposure times to CFL irradiation, followed by plating on agar and incubation at 37° C. […] The irradiated bacteria were plated onto agar in serial tenfold dilutions (10^7-10^1 cfu/mL); controls included one set of wells without photosensitizer, and one set of wells with photosensitizer but without 15 min irradiation, prior to plating (dark toxicity). Bacterial counts were determined by the drop-plate method using TS-agar plates, and reported in colony-forming units per milliliter (cfu/mL).
The irradiation source consisted of a 20-W compact fluorescent lightbulb (CFL; Sunlite SL20/BLB) housed in an ellipsoidal reflector dome.

S. aureus (PCI 1203) = assay: Competitive hemin uptake assay (fluorescence microscopy); assay type: cell-based, Staphylococcus aureus; conditions: standard conditions (TS media); no background subtraction
[5] = Rish et al. 2007; cited from earlier work
[6] = tested on: S. aureus and clinical isolates of MRSA; assay: aPDI with CFL irradiation, summary over strains; assay type: cell-based, Staphylococcus aureus; conditions: 15 minutes of irradiation, compact fluorescence lightbulb (λmax 406 nm, 12.4 mW/cm^2)
Experimental: as §3

[7] = tested on: four clinical isolates of MRSA; assay: aPDI with CFL irradiation, summary over MRSA isolates; assay type: cell-based, Staphylococcus aureus
Experimental: as §1
as §3, with “The irradiated bacteria were plated onto agar in serial tenfold dilutions (10^7-10^1 cfu/mL); controls included one set of wells without photosensitizer, and one set of wells with photosensitizer but without 15 min irradiation, prior to plating (dark toxicity).” left out

S. aureus = assay: aPDI with 405-nm LED bar, summary over strains; assay type: cell-based, Staphylococcus aureus; conditions: 10 seconds, 405-nm light-emitting diode bar (99 mW/cm^2), fluence about 1 J/cm^2
Experimental: Antibacterial activity assay general protocol: Used LED light to test conditions. Bacteria were grown in TS broth, followed by 3 mM bipyridine in TS broth until log phase. Bacteria were then diluted with PBS, to OD 0.1 (˜10^) and then to ˜10^7 cfu/mL. 100 uL of bacteria were placed in 96 well plates with the appropriate GaPpIX concentration. 2× serial dilutions were then done to obtain other GaPpIX concentrations. Each concentration was done in triplicate. Bacteria were left incubating and irradiating for different amount of times at different light powers or left in the dark. 10× Serial dilutions were done and bacteria were plated for colony counting using the drop-plate technique. Colonies were counted after 24 hours. As reported herein, a 3-log reduction equals measurable antimicrobial action; a 6-log reduction equals total eradication.

[8] = 0 min (dark), no irradiation (dark toxicity)
[9] = 0 min (dark), no irradiation (dark toxicity), listed as PpIX
[10] = 15 min CFL (11.2 J/cm^2), listed as PpIX
[11] = 0 min (dark), no irradiation (dark toxicity), listed as Ga-
[12] = 15 min CFL (11.2 J/cm^2), listed as GaPpIX (1)

Compound | Antimicrobial activity (minimum 3-log CFU reduction) [1, 8] | Antimicrobial activity (minimum 3-log CFU reduction) ([1]; 15 min CFL (11.2 J/cm^2)) | Eradication (6 log reduction) ([1]; 15 min CFL (11.2 J/cm^2)) | potency relative to dark toxicity (0 min exposure) [1] | Eradication (6 log reduction) ([1]; No irradiation (dark toxicity)) | Antimicrobial activity (minimum 3-log CFU reduction) [2, 8] | Antimicrobial activity (minimum 3-log CFU reduction) ([2]; 15 min CFL (11.2 J/cm^2)) | Eradication (6 log reduction) ([2]; 15 min CFL (11.2 J/cm^2)) | potency relative to dark toxicity (0 min exposure) [2] | Eradication (6 log reduction) ([2]; No irradiation (dark toxicity)) | Antimicrobial activity (minimum 3-log CFU reduction) [3, 8] | Antimicrobial activity (minimum 3-log CFU reduction) ([3]; 15 min CFL (11.2 J/cm^2)) | Eradication (6 log reduction) ([3]; 15 min CFL (11.2 J/cm^2)) | potency relative to dark toxicity (0 min exposure) [3] | Eradication (6 log reduction) ([3]; No irradiation (dark toxicity)) | Antimicrobial activity (minimum 3-log CFU reduction) [4, 8] | Eradication (6 log reduction) ([4]; 15 min CFL (11.2 J/cm^2)) | potency relative to dark toxicity (0 min exposure) [4] | Eradication (6 log reduction) ([4]; No irradiation (dark toxicity)) | Antimicrobial activity (minimum 3-log CFU reduction) (S. epidermis (ATCC 155); [8]) | also measured
C=CC1=C(C)c2cc3[nH]c(cc4nc(cc5[nH]c(cc1n2)c(C)c5CCC(=O)O)C(CCC(=O)O)=C4C)c(C)c3C=C [PpIX (2), PpIX, reference compound] | >146 μM | 36.3 μM | 73 μM | >4x | >146 μM | >146 μM | 18.3 μM | 36.3 μM | >8x | >146 μM | >146 μM | 9.1 μM | 18.3 μM | 16x | >146 μM | 36.3 μM | 4.6 μM | 32x | 146 μM | >146 μM | Antimicrobial activity (minimum 3-log CFU reduction) [1, 9]: >146^d μM; Antimicrobial activity (minimum 3-log CFU reduction) [2, 9]: >146^d μM; Antimicrobial activity (minimum 3-log CFU reduction) [3, 9]: 146 μM; Antimicrobial activity (minimum 3-log CFU reduction) ([4]; 15 min CFL (11.2 J/cm^2)): 1.1 μM; Antimicrobial activity (minimum 3-log CFU reduction) [4, 10]: 1.1^c μM; Antimicrobial activity (minimum 3-log CFU reduction) (S. epidermis (ATCC 155); [9]): >146^d μM; Antimicrobial activity (minimum 3-log CFU reduction) (S. epidermis (ATCC 155); 15 min CFL (11.2 J/cm^2)): 4.5 μM; Eradication (6 log reduction) (S. epidermis (ATCC 155); 15 min CFL (11.2 J/cm^2)): 9 μM; Antimicrobial activity (minimum 3-log CFU reduction) (S. epidermis (ATCC 155); [10]): 4.6 μM; potency relative to dark toxicity (0 min exposure) (S. epidermis (ATCC 155)): >32x; Eradication (6 log reduction) (S. epidermis (ATCC 155); No irradiation (dark toxicity)): >146 μM; Fluorescence after 15 min (S. aureus (PCI 1203)): 11.90 a.u.; Fluorescence after 15 min exposure + 1 equiv. hemin (S. aureus (PCI 1203)): 10.15 a.u.
Ga(III)-protoporphyrin [Ga-PpIX (1)] | >146 μM | 4.6 μM | 18.3 μM | >32x | >146 μM | >146 μM | 4.6 μM | 36.3 μM | >32x | >146 μM | 73 μM | 1.1 μM | 2.3 μM | 64x | 146 μM | 36.3 μM | 2.3 μM | 32x | 73 μM | 146 μM | Antimicrobial activity (minimum 3-log CFU reduction) [1, 11]: >146^d μM; Antimicrobial activity (minimum 3-log CFU reduction) [2, 11]: >146^d μM; Antimicrobial activity (minimum 3-log CFU reduction) ([4]; 15 min CFL (11.2 J/cm^2), listed as Ga-): 1.1^c μM; Antimicrobial activity (minimum 3-log CFU reduction) [4, 12]: 1.1 μM; molar extinction coefficient, previous reports [5]: 250000 M⁻¹ cm⁻¹; GaPpIX concentration for 3-log reduction by aPDI [6]: 0.5-4.5 μM; bactericidal activities (aPDI) [7]: 1 to 5 µM; GaPpIX concentration showing aPDI efficacy (S. aureus): 0.06 to 0.12 µM; Antimicrobial activity (minimum 3-log CFU reduction) (S. epidermis (ATCC 155); 15 min CFL (11.2 J/cm^2)): 0.57 μM; Eradication (6 log reduction) (S. epidermis (ATCC 155); 15 min CFL (11.2 J/cm^2), listed as Ga-PpIX): 1.1 μM; Eradication (6 log reduction) (S. epidermis (ATCC 155); [12]): 4.5 μM; potency relative to dark toxicity (0 min exposure) (S. epidermis (ATCC 155)): 256x; bactericidal activity (S. epidermis (ATCC 155); CFL irradiation, clinical isolate from a skin lesion): 570 nM; Eradication (6 log reduction) (S. epidermis (ATCC 155); No irradiation (dark toxicity)): 146 μM; Fluorescence after 15 min (S. aureus (PCI 1203)): 18.09 a.u.; Fluorescence after 15 min exposure + 1 equiv. hemin (S. aureus (PCI 1203)): 15.08 a.u.
